Measured values taken from patent US20090048295A1, “SUBSTITUTED 5,6,7,8-TETRAHYDROQUINOLINE DERIVATIVES, COMPOSITIONS, AND METHODS OF USE THEREOF” (priority 2007, published 2009).

Molecular target: T1, C5a receptor (Homo sapiens, UniProt P21730)
T1 sequence (P21730 1-350): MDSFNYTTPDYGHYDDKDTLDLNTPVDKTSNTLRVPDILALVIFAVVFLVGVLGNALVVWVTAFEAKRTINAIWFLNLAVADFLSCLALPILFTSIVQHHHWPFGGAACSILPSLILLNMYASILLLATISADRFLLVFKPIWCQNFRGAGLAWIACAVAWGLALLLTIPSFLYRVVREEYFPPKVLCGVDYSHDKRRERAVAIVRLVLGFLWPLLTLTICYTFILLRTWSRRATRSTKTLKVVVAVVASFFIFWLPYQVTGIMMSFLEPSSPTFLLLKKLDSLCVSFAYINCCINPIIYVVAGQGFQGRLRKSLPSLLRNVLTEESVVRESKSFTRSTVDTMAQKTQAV
Assay: Calcium Mobilization Assay (C5a-induced Ca2+ mobilization, FLIPR, differentiated U937 cells)
Format: cell-based
Design: endogenous in cells; host or cells: U937 cells differentiated with dibutyryl cAMP
Conditions: […] recombinant human C5a, 20 min pre-incubation, multiple values = duplicate experiments, read-out: C5a Induced Ca Mobil. Average IC50
Method: U937 cells (human monocytic cell line) were cultured in RPMI-1640 medium supplemented with 10% fetal bovine serum, 10 mM HEPES, 0.11 g/L pyruvate, 0.29 g/L L-glutamine, 100 IU/mL penicillin G and […] streptomycin. Dibutyryl cAMP (1 mM) was added to induce differentiation 2 or 3 days prior to loading the cells with 4.4 μM Fluo-3AM (Molecular Probes) for 30 min at 37° C. in RPMI medium containing 20 mM HEPES, 0.1% bovine serum albumin (BSA) and 5 mM probenecid. After washing, cells were dissolved at 2×10^6 cells/ml in HBSS buffer (Invitrogen 14190-094) supplemented with 10 mM HEPES, 2.5 mM probenecid and 0.1% BSA (pH=7.4), and sedimented by 1 min centrifugation (1500 rpm) in black 96-well plates (Costar) (200,000 cells/well). A 100× concentration range of test compounds was prepared in DMSO and further diluted in HBSS buffer. U937 cells were pre-incubated with compound for 20 minutes at room temperature (1% DMSO), before recombinant human C5a (Sigma) was added to the cells (1.5 nM). Changes in intracellular free Ca^2+ concentration were measured using the Fluorescent Imaging Plate Reader (FLIPR, Molecular Devices). Fluorescence was recorded every second from 10 seconds before the addition of C5a until 2 min after the addition. The maximal fluorescence obtained during this time frame was used for further calculations.

Row | IC50 [µM] | SMILES
1 | > 10 | COc1cc(-c2c(C)cccc2C)nc2c1C(N(C)c1cccc3c1CCN(C)C3)CCC2 (centres unmarked) [Compound 112]
2 | 0.687 | CCc1cccc(CC)c1-c1cc(OC)c2c(n1)CCCC2N(C)c1cc(C)ccc1C (centres unmarked) [Compound 40]
3 | 0.287 | CCc1cccc(CC)c1-c1cc(OC)c2c(n1)CCCC2Nc1cc(C(F)(F)F)ccc1C (centres unmarked) [Compound 28]
4 | > 10 | CCc1cccc(CC)c1-c1cc(OC)c2c(n1)CCCC2N(C)CCCc1ccccc1 (centres unmarked) [Compound 91]
5 | 2.46 | CCc1cccc(CC)c1-c1cc(OC)c2c(n1)CCCC2Nc1cc(-c2ccccc2)ccc1C (centres unmarked) [Compound 66]
6 | > 10 | CCc1cccc(CC)c1-c1cc(OC)c2c(n1)CCCC2N(C)Cc1ccco1 (centres unmarked) [Compound 92]
7 | 0.792 | CCc1cccc(CC)c1-c1cc(OC)c2c(n1)CCCC2N(C)c1ccccc1C (centres unmarked) [Compound 42]
8 | 1.58 | CCc1cccc(CC)c1-c1cc(OC)c2c(n1)CCCC2N(C)N1CCCc2ccccc21 (centres unmarked) [Compound 54]
9 | > 10 | COc1cc(-c2c(C)cccc2C)nc2c1C(N(C)c1cccc3[nH]ccc13)CCC2 (centres unmarked) [Compound 113]
10 | > 10 | CCc1cccc(CC)c1-c1cc(OC)c2c(n1)CCCC2N(C)c1cccc2ccccc12 (centres unmarked) [Compound 104]
11 | 2.35 | CCc1cccc(CC)c1-c1cc(OC)c2c(n1)CCCC2Nc1ccc(OC)cc1C (centres unmarked) [Compound 63]
12 | 0.817 | CCc1cccc(CC)c1-c1cc(OC)c2c(n1)CCC[C@H]2N(C)[C@H]1CCCc2ccccc21 [Compound 43]
13 | > 10 | COc1cc(-c2c(C)cccc2C)nc2c1C(N(C)c1cc(C)ccc1C(C)C)CCC2 (centres unmarked) [Compound 110]
14 | 5.5 | CCc1cccc(CC)c1-c1cc(OC)c2c(n1)CCC[C@@H]2N(C)[C@H]1CCCc2ccccc21 [Compound 77]
15 | 8.13 | CCc1cccc(CC)c1-c1cc(OC)c2c(n1)CCCC2N(C)C1CCCc2ccccc21 (centres unmarked) [Compound 83]
16 | 0.133 | CCN(c1cccc2ccccc12)C1CCCc2nc(-c3c(C)cccc3C)cc(OC)c21 (centres unmarked) [Compound 16]
17 | 1.38 | CCc1cccc(CC)c1-c1cc(OC)c2c(n1)CCCC2Nc1cc(F)ccc1C (centres unmarked) [Compound 50]
18 | 1.21 | COc1cc(-c2c(C)cccc2C)nc2c1C(N(C)c1ccc(Cl)c3ccccc13)CCC2 (centres unmarked) [Compound 48]

Row | SMILES | IC50 [µM]
19 | CCc1cccc(CC)c1-c1cc(SC)c2c(n1)CCCC2N(CC)c1cccc2ccccc12 (centres unmarked) [Compound 10] | 0.082
20 | CCc1cccc(CC)c1-c1cc(OC)c2c(n1)CCCC2N1CCc2ccc(F)cc2C1 (centres unmarked) [Compound 45] | 0.878
21 | CCN(c1cccc2ccccc12)C1CCCc2nc(-c3ccccc3C)cc(OC)c21 (centres unmarked) [Compound 30] | 0.354

Molecular target: T1, C5a receptor
Assay: [125I]-C5a Radioligand Binding Assay (competition binding, differentiated U937 cells);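 note: cells preincubated with compound 30 min at room temperature, then 60 min at 4 °C with radioligand, bound counts read by scintillation, nonspecific binding defined with 100 nM C5a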
Conditions: read-out: [125I]-C5a Binding % Inhibition 1 μM, test compound 1 μM; [125I]-C5a 0.05 nM; U937 cells; multiple values = duplicate experiments
Method: Competition binding assays for C5a receptors were performed by incubation of differentiated U937 cells (200,000 cells/well), test compound (1% DMSO) and [^125I]-C5a (Bolton & Hunter labeled, Perkin Elmer, specific activity=2200 Ci/mmol, 0.05 nM final) in binding buffer consisting of 50 mM HEPES, 5 mM MgCl2, 1 mM CaCl2, 0.5% protease-free BSA, 0.02% NaN3, pH 7.4. 100× solutions of test compounds were prepared in DMSO and further diluted in binding buffer. Non-specific binding was defined in wells containing 100 nM recombinant C5a. Cells and compound were pre-incubated for 30 min at RT. After addition of the radioligand, further incubation for 60 min occurred at 4° C. Cells were harvested on GF/B filters—presoaked in 0.5% polyethylenimine, followed by washing with binding buffer containing 500 mM NaCl, pH 7.4. Filter bound radioactivity was determined by liquid scintillation counting. IC50 and Ki values were calculated using non-linear regression in Graphpad Prism. Ki is calculated using the equation of Cheng and Prusoff (Biochem. Pharmacol. 1973, 22: 3099-3108)

Row | inhibition at 1 µM [%] | SMILES
22 | 36 | COc1cc(-c2c(C)cccc2C)nc2c1C(N(C)c1cccc3c1CCN(C)C3)CCC2 (centres unmarked) [Compound 112]
23 | 88 | CCc1cccc(CC)c1-c1cc(OC)c2c(n1)CCCC2N(C)c1cc(C)ccc1C (centres unmarked) [Compound 40]
24 | 88 | CCc1cccc(CC)c1-c1cc(OC)c2c(n1)CCCC2Nc1cc(C(F)(F)F)ccc1C (centres unmarked) [Compound 28]
25 | 83 | CCc1cccc(CC)c1-c1cc(OC)c2c(n1)CCCC2Nc1cc(-c2ccccc2)ccc1C (centres unmarked) [Compound 66]
26 | 24 | CCc1cccc(CC)c1-c1cc(OC)c2c(n1)CCCC2N(C)Cc1ccco1 (centres unmarked) [Compound 92]
27 | 83 | CCc1cccc(CC)c1-c1cc(OC)c2c(n1)CCCC2N(C)c1ccccc1C (centres unmarked) [Compound 42]
28 | 74 | CCc1cccc(CC)c1-c1cc(OC)c2c(n1)CCCC2N(C)N1CCCc2ccccc21 (centres unmarked) [Compound 54]
29 | 56 | CCc1cccc(CC)c1-c1cc(OC)c2c(n1)CCCC2N(C)c1cccc2ccccc12 (centres unmarked) [Compound 104]
30 | 74 | CCc1cccc(CC)c1-c1cc(OC)c2c(n1)CCCC2Nc1ccc(OC)cc1C (centres unmarked) [Compound 63]
31 | 80 | CCc1cccc(CC)c1-c1cc(OC)c2c(n1)CCC[C@H]2N(C)[C@H]1CCCc2ccccc21 [Compound 43]
32 | 77 | COc1cc(-c2c(C)cccc2C)nc2c1C(N(C)c1cc(C)ccc1C(C)C)CCC2 (centres unmarked) [Compound 110]
33 | 88 | CCN(c1cccc2ccccc12)C1CCCc2nc(-c3c(C)cccc3C)cc(OC)c21 (centres unmarked) [Compound 16]
34 | 83 | CCc1cccc(CC)c1-c1cc(OC)c2c(n1)CCCC2Nc1cc(F)ccc1C (centres unmarked) [Compound 50]
35 | 85 | COc1cc(-c2c(C)cccc2C)nc2c1C(N(C)c1ccc(Cl)c3ccccc13)CCC2 (centres unmarked) [Compound 48]

Row | SMILES | inhibition at 1 µM [%]
36 | CCc1cccc(CC)c1-c1cc(SC)c2c(n1)CCCC2N(CC)c1cccc2ccccc12 (centres unmarked) [Compound 10] | 92
37 | CCc1cccc(CC)c1-c1cc(OC)c2c(n1)CCCC2N1CCc2ccc(F)cc2C1 (centres unmarked) [Compound 45] | 74
38 | CCN(c1cccc2ccccc12)C1CCCc2nc(-c3ccccc3C)cc(OC)c21 (centres unmarked) [Compound 30] | 68

Same assay, conditions: read-out: [125I]-C5a Binding % Inhibition 10 μM, test compound 10 μM; [125I]-C5a 0.05 nM; U937 cells; multiple values = duplicate experiments

Row | inhibition at 10 µM [%] | SMILES
39 | 70 | COc1cc(-c2c(C)cccc2C)nc2c1C(N(C)c1cccc3c1CCN(C)C3)CCC2 (centres unmarked) [Compound 112]
40 | 88 | CCc1cccc(CC)c1-c1cc(OC)c2c(n1)CCCC2N(C)c1cc(C)ccc1C (centres unmarked) [Compound 40]
41 | 92 | CCc1cccc(CC)c1-c1cc(OC)c2c(n1)CCCC2Nc1cc(C(F)(F)F)ccc1C (centres unmarked) [Compound 28]
42 | 88 | CCc1cccc(CC)c1-c1cc(OC)c2c(n1)CCCC2Nc1cc(-c2ccccc2)ccc1C (centres unmarked) [Compound 66]
43 | 62 | CCc1cccc(CC)c1-c1cc(OC)c2c(n1)CCCC2N(C)Cc1ccco1 (centres unmarked) [Compound 92]
44 | 86 | CCc1cccc(CC)c1-c1cc(OC)c2c(n1)CCCC2N(C)c1ccccc1C (centres unmarked) [Compound 42]
45 | 87 | CCc1cccc(CC)c1-c1cc(OC)c2c(n1)CCCC2N(C)N1CCCc2ccccc21 (centres unmarked) [Compound 54]
46 | 64 | CCc1cccc(CC)c1-c1cc(OC)c2c(n1)CCCC2N(C)c1cccc2ccccc12 (centres unmarked) [Compound 104]
47 | 82 | CCc1cccc(CC)c1-c1cc(OC)c2c(n1)CCCC2Nc1ccc(OC)cc1C (centres unmarked) [Compound 63]
48 | 83 | CCc1cccc(CC)c1-c1cc(OC)c2c(n1)CCC[C@H]2N(C)[C@H]1CCCc2ccccc21 [Compound 43]
49 | 82 | COc1cc(-c2c(C)cccc2C)nc2c1C(N(C)c1cc(C)ccc1C(C)C)CCC2 (centres unmarked) [Compound 110]
50 | 90 | CCN(c1cccc2ccccc12)C1CCCc2nc(-c3c(C)cccc3C)cc(OC)c21 (centres unmarked) [Compound 16]
51 | 85 | CCc1cccc(CC)c1-c1cc(OC)c2c(n1)CCCC2Nc1cc(F)ccc1C (centres unmarked) [Compound 50]
52 | 91 | COc1cc(-c2c(C)cccc2C)nc2c1C(N(C)c1ccc(Cl)c3ccccc13)CCC2 (centres unmarked) [Compound 48]

Row | SMILES | inhibition at 10 µM [%]
53 | CCc1cccc(CC)c1-c1cc(SC)c2c(n1)CCCC2N(CC)c1cccc2ccccc12 (centres unmarked) [Compound 10] | 94
54 | CCc1cccc(CC)c1-c1cc(OC)c2c(n1)CCCC2N1CCc2ccc(F)cc2C1 (centres unmarked) [Compound 45] | 87
55 | CCN(c1cccc2ccccc12)C1CCCc2nc(-c3ccccc3C)cc(OC)c21 (centres unmarked) [Compound 30] | 82

Same assay, conditions: test compound 1 μM; [125I]-C5a 0.05 nM; U937 cells; multiple values = duplicate experiments

Row | [125I]-C5a Binding % Inhibition 1 μM [%] | SMILES
56 | 20 | CCc1cccc(CC)c1-c1cc(OC)c2c(n1)CCCC2N(C)CCCc1ccccc1 (centres unmarked) [Compound 91]
57 | 33 | COc1cc(-c2c(C)cccc2C)nc2c1C(N(C)c1cccc3[nH]ccc13)CCC2 (centres unmarked) [Compound 113]
58 | 51 | CCc1cccc(CC)c1-c1cc(OC)c2c(n1)CCCC2N(C)C1CCCc2ccccc21 (centres unmarked) [Compound 83]

Same assay, conditions: test compound 10 μM; [125I]-C5a 0.05 nM; U937 cells; multiple values = duplicate experiments

Row | [125I]-C5a Binding % Inhibition 10 μM [%] | SMILES
59 | 60 | CCc1cccc(CC)c1-c1cc(OC)c2c(n1)CCCC2N(C)CCCc1ccccc1 (centres unmarked) [Compound 91]
60 | 54 | COc1cc(-c2c(C)cccc2C)nc2c1C(N(C)c1cccc3[nH]ccc13)CCC2 (centres unmarked) [Compound 113]
61 | 72 | CCc1cccc(CC)c1-c1cc(OC)c2c(n1)CCC[C@@H]2N(C)[C@H]1CCCc2ccccc21 [Compound 77]
62 | 71 | CCc1cccc(CC)c1-c1cc(OC)c2c(n1)CCCC2N(C)C1CCCc2ccccc21 (centres unmarked) [Compound 83]
